Measurements published in ChEMBL document CHEMBL3885881, “DrugMatrix”.

Organism: Rattus norvegicus
Assay type: toxicity, organism-based, Sprague-Dawley
Conditions: in vivo, po, route oral GAVAGE, vehicle 100 % SALINE; for ABSOLUTE EOSINOPHIL / ABSOLUTE LYMPHOCYTE / ABSOLUTE MONOCYTE / ABSOLUTE SEGMENTED NEUTROPHIL / BASOPHIL / EOSINOPHIL / ERYTHROCYTE COUNT / HEMATOCRIT / HEMOGLOBIN / LEUKOCYTE COUNT / LYMPHOCYTE / MEAN CORPUSCULAR HEMOGLOBIN / MEAN CORPUSCULAR HEMOGLOBIN CONCENTRATION / MEAN CORPUSCULAR VOLUME / MONOCYTE / NEUTROPHIL / NUCLEATED RED BLOOD CELLS / PLATELET COUNT: tissue Blood; for ALANINE AMINOTRANSFERASE / ALBUMIN / ALKALINE PHOSPHATASE / ASPARTATE AMINOTRANSFERASE / BLOOD UREA NITROGEN / CARBON DIOXIDE / CHLORIDE / CHOLESTEROL / CREATINE PHOSPHOKINASE / CREATININE / GLUCOSE / LACTATE DEHYDROGENASE / LIPASE / PHOSPHORUS / POTASSIUM / SODIUM / TOTAL BILIRUBIN / TOTAL PROTEIN / URIC ACID: tissue Plasma
[1] = 0 mg/kg, 6 h, dose level Control, time 0.25 day
[2] = 0 mg/kg, 24 h, dose level Control, time 1 day
[3] = 3000 mg/kg, 6 h, dose level Low, time 0.25 day

Description: DrugMatrix - Regimen: Single

CCO [ALCOHOL]
ABSOLUTE EOSINOPHIL [1]: 24 CELLS/uL
ABSOLUTE LYMPHOCYTE [1]: 11958.17 CELLS/uL
ABSOLUTE MONOCYTE [1]: 398.83 CELLS/uL
ABSOLUTE SEGMENTED NEUTROPHIL [1]: 1252.33 CELLS/uL
BASOPHIL [1]: 0%
EOSINOPHIL [1]: 0.17%
ERYTHROCYTE COUNT [1]: 5.37 x10E6/uL
HEMATOCRIT [1]: 35.6%
HEMOGLOBIN [1]: 13.05 G/DL
LEUKOCYTE COUNT [1]: 13.63 x10E3/uL
LYMPHOCYTE [1]: 87.67%
MEAN CORPUSCULAR HEMOGLOBIN [1]: 24.28 pg
MEAN CORPUSCULAR HEMOGLOBIN CONCENTRATION [1]: 36.67 G/DL
MEAN CORPUSCULAR VOLUME [1]: 66.28 fL
MONOCYTE [1]: 2.83%
NEUTROPHIL [1]: 9.33%
NUCLEATED RED BLOOD CELLS [1]: 0 /100WBC
PLATELET COUNT [1]: 947.83 x10E3/uL
ALANINE AMINOTRANSFERASE [1]: 51 u/L
ALBUMIN [1]: 4.02 G/DL
ALKALINE PHOSPHATASE [1]: 312.33 u/L
ASPARTATE AMINOTRANSFERASE [1]: 98.17 u/L
BLOOD UREA NITROGEN [1]: 9.5 mg/dL
CARBON DIOXIDE [1]: 18.83 mmol/L
CHLORIDE [1]: 103.5 MEQ/L
CHOLESTEROL [1]: 69.5 mg/dL
CREATINE PHOSPHOKINASE [1]: 580.17 u/L
CREATININE [1]: 0.53 mg/dL
GLUCOSE [1]: 175.67 mg/dL
LACTATE DEHYDROGENASE [1]: 295.5 u/L
LIPASE [1]: 8.17 u/L
PHOSPHORUS [1]: 14.12 mg/dL
POTASSIUM [1]: 5.77 MEQ/L
SODIUM [1]: 144.13 MEQ/L
TOTAL BILIRUBIN [1]: 0.12 mg/dL
TOTAL PROTEIN [1]: 4.87 G/DL
URIC ACID [1]: 2.25 mg/dL
ABSOLUTE EOSINOPHIL [2]: 0 CELLS/uL
ABSOLUTE LYMPHOCYTE [2]: 12232.83 CELLS/uL
ABSOLUTE MONOCYTE [2]: 20.33 CELLS/uL
ABSOLUTE SEGMENTED NEUTROPHIL [2]: 780.17 CELLS/uL
BASOPHIL [2]: 0%
EOSINOPHIL [2]: 0%
ERYTHROCYTE COUNT [2]: 5.18 x10E6/uL
HEMATOCRIT [2]: 33.48%
HEMOGLOBIN [2]: 13.22 G/DL
LEUKOCYTE COUNT [2]: 13.03 x10E3/uL
LYMPHOCYTE [2]: 93.33%
MEAN CORPUSCULAR HEMOGLOBIN [2]: 25.57 pg
MEAN CORPUSCULAR HEMOGLOBIN CONCENTRATION [2]: 39.52 G/DL
MEAN CORPUSCULAR VOLUME [2]: 64.65 fL
MONOCYTE [2]: 0.17%
NEUTROPHIL [2]: 6.5%
NUCLEATED RED BLOOD CELLS [2]: 0 /100WBC
PLATELET COUNT [2]: 931.5 x10E3/uL
ALANINE AMINOTRANSFERASE [2]: 60.83 u/L
ALBUMIN [2]: 4.18 G/DL
ALKALINE PHOSPHATASE [2]: 283.33 u/L
ASPARTATE AMINOTRANSFERASE [2]: 80.5 u/L
BLOOD UREA NITROGEN [2]: 11.83 mg/dL
CARBON DIOXIDE [2]: 35.33 mmol/L
CHLORIDE [2]: 98.5 MEQ/L
CHOLESTEROL [2]: 80 mg/dL
CREATINE PHOSPHOKINASE [2]: 181.83 u/L
CREATININE [2]: 0.2 mg/dL
GLUCOSE [2]: 142.67 mg/dL
LACTATE DEHYDROGENASE [2]: 65.5 u/L
LIPASE [2]: 9.83 u/L
PHOSPHORUS [2]: 9.82 mg/dL
POTASSIUM [2]: 5.69 MEQ/L
SODIUM [2]: 143.35 MEQ/L
TOTAL BILIRUBIN [2]: 0.15 mg/dL
TOTAL PROTEIN [2]: 6.2 G/DL
URIC ACID [2]: 0.42 mg/dL
ABSOLUTE EOSINOPHIL [3]: 17.33 CELLS/uL
ABSOLUTE LYMPHOCYTE [3]: 12297.17 CELLS/uL
ABSOLUTE MONOCYTE [3]: 395.33 CELLS/uL
ABSOLUTE SEGMENTED NEUTROPHIL [3]: 1356.83 CELLS/uL
BASOPHIL [3]: 0%
EOSINOPHIL [3]: 0.17%
ERYTHROCYTE COUNT [3]: 5.49 x10E6/uL
HEMATOCRIT [3]: 36.33%
HEMOGLOBIN [3]: 13.27 G/DL
LEUKOCYTE COUNT [3]: 14.07 x10E3/uL
LYMPHOCYTE [3]: 87%
MEAN CORPUSCULAR HEMOGLOBIN [3]: 24.23 pg
MEAN CORPUSCULAR HEMOGLOBIN CONCENTRATION [3]: 36.55 G/DL
MEAN CORPUSCULAR VOLUME [3]: 66.38 fL
MONOCYTE [3]: 2.67%
NEUTROPHIL [3]: 10.17%
NUCLEATED RED BLOOD CELLS [3]: 0 /100WBC
PLATELET COUNT [3]: 1109.83 x10E3/uL
ALANINE AMINOTRANSFERASE [3]: 45.5 u/L
ALBUMIN [3]: 4.27 G/DL
ALKALINE PHOSPHATASE [3]: 279.17 u/L
ASPARTATE AMINOTRANSFERASE [3]: 96.17 u/L
BLOOD UREA NITROGEN [3]: 11 mg/dL
CARBON DIOXIDE [3]: 19.5 mmol/L
CHLORIDE [3]: 105.33 MEQ/L
CHOLESTEROL [3]: 63.33 mg/dL
CREATINE PHOSPHOKINASE [3]: 339.67 u/L
CREATININE [3]: 0.17 mg/dL
GLUCOSE [3]: 173 mg/dL
LACTATE DEHYDROGENASE [3]: 354.67 u/L
LIPASE [3]: 10 u/L
PHOSPHORUS [3]: 15.83 mg/dL
POTASSIUM [3]: 6.29 MEQ/L
SODIUM [3]: 146.3 MEQ/L
TOTAL BILIRUBIN [3]: 0.0667 mg/dL
TOTAL PROTEIN [3]: 5.62 G/DL
URIC ACID [3]: 2.12 mg/dL
